{
  "source": "patent US20230339983A1",
  "about": "“FLUORESCENT COMPOUNDS SPECIFIC FOR PLURIPOTENT STEM CELLS AND REPROGRAMMING-READY CELLS AND METHODS OF USING THE SAME” (Agency for Science, Technology and Research, priority 2018, published 2023)",
  "key": {"DPSCs": {"tested_on": "DPSCs", "assay": "Proliferation assay (Trypan Blue viable cell count)", "type": "cell-based, human", "settings": "500 nM", "experimental": "To ensure that BDL-E5 was not toxic to the cells, DPSCs were incubated with BDL-E5 (500 nM) for 48 h and 72 h and viable cells were counted in a haemocytometer using the Tryphan Blue method. DPSCs in which CREB1 was over-expressed or silenced were also counted at 72 h post nucleofection to determine if gene manipulation has affected the cell proliferation."}, "[1]": {"tested_on": "reprogramming (RP) versus non-reprogramming (non-RP) DPSCs (DPSC1)", "assay": "Signal-to-noise comparison of reprogramming versus non-reprogramming cells", "type": "cell-based, human", "experimental": "FIG. 14: (A) Graph representing signal-to-noise ratios (arbitrary fluorescence units) on comparing reprogramming (RP) versus non-reprogramming (non-RP) DPSCs (DPSC1) stained with either CDy1 or BDL-E5. The fluorescence intensity was measured using ImageJ software. 100 cells per field (10×), 10 fields per well, 3 wells per probe were measured. […] denotes significance between RP and non-RP cells. (B) Proliferation assay of DPSC1 incubated with BDL-E5 (500 nM) for 2 to 5 days; represented as number of viable cells per cm^2 (n=3). (C) Proliferation assay of reprogramming DPSC1, 48 h after transfection with Scr CREB1, CREB1 OE or siCREB1; represented as number of viable cells per cm^2 (n=3)."}},
  "data": [
    {"molecule": "COc1cc(F)c(/C=C/c2cc(C)c3n2[B-](F)(F)[N+]2=C(CCC(=O)NCCN(C)C)C=CC2=C3)cc1OC", "note": "[BDL-E5]", "values": [
      {"measurement": "toxicity to cells", "setting": "DPSCs", "value": "not toxic"},
      {"measurement": "signal toward reprogramming cells and background staining against non-reprogramming cells", "setting": "[1]", "value": "low non-specific staining against non-reprogramming cells"}
    ]}
  ]
}
